The values that follow come from patent publication US12679878B2, “CRF2 receptor agonists and their use in therapy” (SANOFI, priority 2020, dated 2026).

The target of data set [1] is T1, human CRF2α receptor (Homo sapiens, UniProt Q13324).
T1 construct: expressed in transfected cells; host or cells: TeloHEAC
T1 sequence (Q13324 1-411): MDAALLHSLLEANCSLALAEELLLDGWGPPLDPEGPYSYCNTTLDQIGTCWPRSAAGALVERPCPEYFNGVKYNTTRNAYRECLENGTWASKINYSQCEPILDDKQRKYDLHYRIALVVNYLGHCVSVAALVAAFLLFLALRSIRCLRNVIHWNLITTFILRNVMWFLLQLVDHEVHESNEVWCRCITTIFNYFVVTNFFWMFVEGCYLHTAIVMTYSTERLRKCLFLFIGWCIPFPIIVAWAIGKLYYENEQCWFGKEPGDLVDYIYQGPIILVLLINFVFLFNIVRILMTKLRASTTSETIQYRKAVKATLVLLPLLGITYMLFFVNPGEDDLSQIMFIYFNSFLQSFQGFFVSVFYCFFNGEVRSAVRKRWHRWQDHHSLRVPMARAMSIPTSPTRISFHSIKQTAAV
As to the kind of experiment: cAMP agonism at human CRF2 α receptor in TeloHEAC cells (Example 7). In kind it is cell-based. Conditions: cAMP HTRF, TeloHEAC cells stably expressing human CRF2 α. The procedure, abridged: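 Steps: thaw and wash cells; suspend in 1×HBSS, 20 mM HEPES, 0 or 0.1% HSA, 2 mM IBMX; add compound, 30 min RT; lyse with HTRF reagents, 1 h; read 665/620 nm. EC50 calculated, E% versus 1000 nM UCN2.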

The target in data set [2] is T2, CRF1R receptor (Homo sapiens, UniProt P34998).
T2 construct: host or cells: CHO-K1 clone 2
T2 sequence (P34998 24-415): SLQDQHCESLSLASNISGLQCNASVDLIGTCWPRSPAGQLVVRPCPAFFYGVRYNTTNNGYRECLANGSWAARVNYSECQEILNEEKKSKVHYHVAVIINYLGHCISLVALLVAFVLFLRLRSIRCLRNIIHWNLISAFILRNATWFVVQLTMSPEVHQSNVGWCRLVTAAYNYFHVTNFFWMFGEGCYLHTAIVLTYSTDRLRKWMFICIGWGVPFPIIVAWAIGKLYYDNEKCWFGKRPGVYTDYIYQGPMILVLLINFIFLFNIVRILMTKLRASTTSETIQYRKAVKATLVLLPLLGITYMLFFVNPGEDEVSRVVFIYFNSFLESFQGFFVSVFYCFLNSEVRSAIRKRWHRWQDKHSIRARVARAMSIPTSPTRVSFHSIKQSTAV
As to the kind of experiment: cAMP activity at anti-target CRF1R, CRF1R-overexpression CHO cell line (Example 9). Type of data set: cell-based. As to conditions: CRF1R-overexpression CHO cell line; for Emax: read-out: Emax (%); for EC50: 0% HSA. The method in brief: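 Using thawed CRF1R-overexpressing CHO cells at 2000 per well, compound is applied for 30 min at RT in HBSS/HEPES buffer with IBMX. Cellular cAMP content is determined via HTRF, and percent activity is calculated against 1000 nM UCN2 defined as 100%.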

Data set [3] is described as follows: Physical stability, Thioflavin T fibrillation assay (Example 14). Conditions: 3 mg/ml, 37° C. shaking. In kind it is physicochemical. The method, then: The physical stability of the compounds was assessed using a Thioflavin T (ThT) assay.
The time course for fibril formation often follows the characteristic shape of a sigmoidal curve and can be separated into three regions: a lag phase, a fast growth phase, and a plateau phase. The typical fibril formation process starts with the lag phase in which the amount of partially folded peptide turned into fibrils is not significant enough to be detected. The lag-time corresponds to the time the critical mass of the nucleus is built. Afterwards, a drastic elongation phase follows and fibril concentration increases rapidly. Therefore, by measuring the increase in fluorescence intensity attributable to ThT as well as the lag time of the increase, the fibrillation tendency of a peptide can be determined, thereby providing a measure of the physical stability of the peptide.
In the present study, test compounds were diluted in buffer to a final concentration of 3 mg/ml.
The fibrillation tendencies of the peptides were determined under stress using a Fluoroskan Ascent FL or Fluoroskan Ascent fluorometer. […] Plates were sealed with Scotch Tape (Quiagen). Samples were stressed by continuous cycles of 10 s shaking at 960 rpm and 50 s rest period at 37° C. Fibril development was monitored by measuring fluorescence intensity every 20 minutes. For each sample, eight replicates were tested.

Data set [4] in a line: Solubility in buffer systems by UPLC-UV (Example 13). Type of data set: physicochemical. The method in brief: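 Quantitation used UV peak area from UPLC of the 1:10-diluted supernatant, set against a reference-compound standard curve with extinction coefficients adjusted for amino acid sequence.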
Data set [5] has as its system rat CRF2R α receptor. As to the kind of experiment: cAMP agonism at rat CRF2R α receptor in A7R5 rat aortic smooth muscle cells (Example 8). In kind it is cell-based. Conditions: cAMP HTRF, A7R5 rat aortic smooth muscle cell line, 0% HSA. The procedure, abridged:
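Potency (EC50) is the concentration reaching half-maximal activation, with responses scaled so that 1000 nM urocortin 2 equals 100%. Intracellular cAMP was quantified by homogeneous time-resolved fluorescence at 665/620 nm, 1 h after lysis-buffer reagents. Compound stimulation lasted 30 min at room temperature on 2000 IBMX-treated (2 mM) cells per well in HEPES-buffered HBSS.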

Setting [6] is: 0% HSA, read-out: EC50 [nM], 0% HSA.
Where [7] appears, read: Buffer B: 100 mM acetate buffer, pH 4.5, 2.7 mg/ml m-cresol.
Setting [8] is: pH 4.5, Solubility in Buffer B [mg/ml].
Setting [9] is: Buffer A: 100 mM acetate buffer, pH 4.5.

Where two headings read alike, the source gives them in different places. Starred links: 1 amine or outer side, 2 acyl side, 3 side chain; linkers in the order of their positions; H or OH if unused. Non-standard residues stand in square brackets, D forms with d. Residues, ends and D or L forms follow the SMILES beside them. Groups on a side chain read outwards from the residue. *: point of attachment. C20 diacid = O=C(O)CCCCCCCCCCCCCCCCCCC(=O)*; C18 diacid = O=C(O)CCCCCCCCCCCCCCCCC(=O)*; γGlu = O=C(O)[C@H](CCC(=O)[*:2])N[*:1]; Palmitoyl = CCCCCCCCCCCCCCCC(=O)*; AEEA = NCCOCCOCC(=O)O; Aib = CC(C)(N)C(=O)O

What is called EC50 is the midpoint of the concentration-response curve. As usually defined, the Emax is the maximal effect, on the per cent scale that the assay sets. In general, solubility refers to how much of the substance goes into solution per volume. For `CCCCCCCCCCCCCCCC(=O)N[C@@H](CCC(=O)NCCCC[C@H](NC(=O)[C@H](CC(C)C)NC(=O)[C@H](CCCCN)NC(=O)[C@@H](NC(=O)[C@@H]1CCCN1C(=O)[C@H](NC(=O)[C@H](CC(=O)O)NC(=O)[C@H](CC(C)C)NC(=O)[C@H](CO)NC(=O)[C@H](CC(C)C)NC(=O)[C@@H](NC(=O)[C@@H](N)[C@@H](C)CC)C(C)C)C(C)C)[C@@H](C)O)C(=O)N[C@@H](CCC(N)=O)C(=O)N[C@@H](CCCCN)C(=O)N[C@@H](CC(C)C)C(=O)N[C@@H](CC(C)C)C(=O)N[C@@H](CCCCN)C(=O)N[C@@H](CCC(N)=O)C(=O)N[C@@H](CCC(=O)O)C(=O)N[C@@H](CCCNC(=N)N)C(=O)N[C@@H](CCC(N)=O)C(=O)N[C@@H](CCCNC(=N)N)C(=O)N[C@@H](CCCCN)C(=O)N[C@@H](CCC(=O)O)C(=O)N[C@@H](CCCNC(=N)N)C(=O)N[C@@H](CCC(=O)O)C(=O)N[C@@H](CCC(N)=O)C(=O)N[C@@H](C)C(=O)N[C@@H](CCC(=O)O)C(=O)N[C@@H](CCCCN)C(=O)N[C@@H](CC(N)=O)C(=O)N[C@@H](C)C(=O)N[C@@H](CCCNC(=N)N)C(=O)N[C@H](C(=O)N[C@@H](CC(C)C)C(=O)N[C@@H](C)C(=O)N[C@@H](CCCNC(=N)N)C(=O)N[C@H](C(N)=O)C(C)C)[C@@H](C)CC)C(=O)O` [compound 7] (H-IVLSLD[dV]PTKLK([γGlu-Palmitoyl])QKLLKQERQRKEREQAEKNARILARV-NH2), the EC50 in data set [1] (setting [6]) is 0.02 nM. Further, in data set [1] (0.1% HSA, read-out: EC50 [nM], 0.1% HSA), the concentration giving a half-maximal response (EC50) came to 0.03 nM. Besides, the maximal response (Emax) in data set [2] came to 58.6%. In data set [3] (setting [7]), the “Increase in FI (fluorescence intensity)” value is listed as “No” and the “Lag time” value was greater than 45 h. The solubility at 1 h in data set [4] (setting [8]) is greater than 8.9 mg/mL.
On to `CC[C@H](C)[C@H](NC(=O)[C@H](CCC(N)=O)NC(=O)[C@H](CCCCNC(=O)COCCOCCNC(=O)COCCOCCNC(=O)CC[C@H](NC(=O)CCCCCCCCCCCCCCCCCCC(=O)O)C(=O)O)NC(=O)[C@@H](NC(=O)[C@H](CCCCN)NC(=O)[C@@H](NC(=O)[C@@H]1CCCN1C(=O)[C@@H](NC(=O)[C@H](CC(=O)O)NC(=O)[C@H](CC(C)C)NC(=O)[C@H](CO)NC(=O)[C@H](CC(C)C)NC(=O)[C@@H](NC(=O)[C@@H](N)Cc1ccccc1)[C@@H](C)O)C(C)C)[C@@H](C)O)[C@@H](C)CC)C(=O)N[C@@H](CC(C)C)C(=O)N[C@@H](CC(C)C)C(=O)N[C@@H](CCCCN)C(=O)N[C@@H](CCC(N)=O)C(=O)N[C@@H](CCC(N)=O)C(=O)N[C@@H](CCCCN)C(=O)N[C@@H](CCC(N)=O)C(=O)N[C@@H](CCCCN)C(=O)N[C@@H](CCCCN)C(=O)N[C@@H](CCC(=O)O)C(=O)N[C@@H](CCCNC(=N)N)C(=O)N[C@@H](CCC(N)=O)C(=O)N[C@@H](CCC(N)=O)C(=O)N[C@@H](C)C(=O)N[C@@H](CCC(=O)O)C(=O)N[C@@H](CCCCN)C(=O)N[C@@H](CC(N)=O)C(=O)N[C@@H](CCCCN)C(=O)N[C@@H](CCC(N)=O)C(=O)N[C@@H](CC(C)C)C(=O)N[C@@H](CC(C)C)C(=O)N[C@@H](CCC(=O)O)C(=O)N[C@@H](CCCNC(=N)N)C(=O)N[C@H](C(N)=O)C(C)C` [compound 60] (H-FTLSLDVPTKIK([AEEA-AEEA-γGlu-C20 diacid])QILLKQQKQKKERQQAEKNKQLLERV-NH2), for which the EC50 in data set [1] (setting [6]) is 0.48 nM; in data set [2], greater than 1000 nM; in data set [5] it was 1.35 nM. For the same compound, in data set [2], the Emax turned out to be 4.84%. Besides, the “Increase in FI (fluorescence intensity)” value in data set [3] (setting [9]) and in data set [3] (setting [7]) was “No” in each case. Further, the “Lag time” value in data set [3] (setting [9]) and in data set [3] (setting [7]) was greater than 45 h in each case. Further, the solubility at 1 h is greater than 11.5 mg/mL in data set [4] (setting [8]) and greater than 11 mg/mL in data set [4] (pH 7.4, Solubility in Buffer C [mg/ml]).
Consider `CC[C@H](C)[C@H](N)C(=O)N[C@H](C(=O)N[C@@H](CC(C)C)C(=O)N[C@@H](CO)C(=O)N[C@@H](CC(C)C)C(=O)N[C@@H](CC(=O)O)C(=O)N[C@H](C(=O)N1CCC[C@H]1C(=O)N[C@H](C(=O)N[C@@H](CCCCN)C(=O)N[C@@H](CC(C)C)C(=O)N[C@@H](CCCCNC(=O)COCCOCCNC(=O)COCCOCCNC(=O)CC[C@H](NC(=O)CCCCCCCCCCCCCCCCC(=O)O)C(=O)O)C(=O)N[C@@H](CCC(N)=O)C(=O)N[C@H](C(=O)N[C@@H](CC(C)C)C(=O)N[C@@H](CC(C)C)C(=O)N[C@@H](CCC(=O)O)C(=O)N[C@@H](CCC(N)=O)C(=O)N[C@@H](CCC(=O)O)C(=O)N[C@@H](CCCNC(=N)N)C(=O)N[C@@H](CCC(N)=O)C(=O)N[C@@H](CCCCN)C(=O)N[C@@H](CCCCN)C(=O)N[C@@H](CCC(N)=O)C(=O)N[C@@H](CCCNC(=N)N)C(=O)N[C@@H](CCC(N)=O)C(=O)N[C@@H](CCC(N)=O)C(=O)N[C@@H](C)C(=O)N[C@@H](CCC(=O)O)C(=O)N[C@H](C(=O)N[C@@H](CC(N)=O)C(=O)NC(C)(C)C(=O)N[C@@H](CCC(N)=O)C(=O)N[C@H](C(=O)N[C@@H](CC(C)C)C(=O)N[C@@H](C)C(=O)N[C@@H](CCC(N)=O)C(=O)N[C@H](C(N)=O)C(C)C)[C@@H](C)CC)[C@@H](C)O)[C@@H](C)CC)[C@@H](C)CC)C(C)C)C(C)C` [compound 72] (H-IVLSLDVPIKLK([AEEA-AEEA-γGlu-C18 diacid])QILLEQERQKKQRQQAETN[Aib]QILAQV-NH2; N-terminus assumed), for which, in data set [1] (setting [6]), the EC50 was determined as 0.65 nM. In data set [2], the EC50 is greater than 1000 nM and the maximal effect (Emax) came to 2.58%. For the same compound, in data set [3] (setting [7]), the “Increase in FI (fluorescence intensity)” value is listed as “Yes” and the “Lag time” value fell in the range of 34.7 to 41.0 h. The compound further had a concentration for a half-maximal effect (EC50) in data set [5] of 4.31 nM. In data set [4] (setting [8]), this compound gave a solubility at 1 h greater than 10.7 mg/mL.
